From patent US9113629B2, “4-amino-6-(4-substituted-phenyl)-picolinates and 6-amino-2-(4-substituted-phenyl)-pyrimidine-4-carboxylates and their use as herbicides” (DOW AGROSCIENCES LLC, priority 2013, dated 2015)
Like-named read-outs stand apart in the source and are kept apart here.

Experiments:
[1] = system: Key Broadleaf Weed and Crop Species; test: Post-emergent Test II herbicidal activity (Table 5); assay type: in vivo; settings: post-emergence, 336 h, post-emergent, 14 days after application; for pest or weed control at 70 g/ha: 70 g ai/ha; for pest or weed control at 140 g/ha: 140 g ai/ha
Procedure, shortened: (§1)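 Plants grown in Metro-Mix 360 (pH 6.0–6.8) in a greenhouse (~15 h photoperiod, 23–29 °C day) to first or second true leaf stage, then sprayed with compound in acetone/DMSO/aqueous crop-oil-surfactant carrier at 187 L/ha by track sprayer. Injury visually scored 0–100% versus untreated plants after 14 d.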

[2] = system: Key Grass and Sedge Weeds as well as Grass Crops; test: Post-emergent Test II herbicidal activity (Table 6); assay type: in vivo; settings: post-emergence, 336 h; for pest or weed control at 70 g/ha: application rate 70 g ai/ha; for pest or weed control at 140 g/ha: application rate 140 g ai/ha
Procedure, shortened: as §1

[3] = ABUTH: velvetleaf (Abutilon theophrasti), read-out: Visual Growth Reduction (%) 14 Days After Application ABUTH
[4] = AMARE: redroot pigweed (Amaranthus retroflexus), read-out: Visual Growth Reduction (%) 14 Days After Application AMARE
[5] = BRSNN: oilseed-rape, canola (Brassica napus), read-out: Visual Growth Reduction (%) 14 Days After Application BRSNN
[6] = CHEAL: lambsquarters (Chenopodium album), read-out: Visual Growth Reduction (%) 14 Days After Application CHEAL
[7] = EPHHL: wild poinsettia (Euphorbia heterophylla), read-out: Visual Growth Reduction (%) 14 Days After Application EPHHL
[8] = HELAN: sunflower (Helianthus annuus), read-out: Visual Growth Reduction (%) 14 Days After Application HELAN
[9] = VIOTR: wild pansy (Viola tricolor), read-out: Visual Growth Reduction (%) 14 Days After Application VIOTR
[10] = Triticum aestivum, TRZSS (wheat), read-out: Visual Growth Reduction (%) 14 Days After Application, TRZSS
[11] = CYPES: yellow nutsedge (Cyperus esculentus), read-out: Visual Growth Reduction (%) 14 Days After Application, CYPES
[12] = DIGSA: crabgrass (Digitaria sanguinalis), read-out: Visual Growth Reduction (%) 14 Days After Application, DIGSA
[13] = ECHCG: barnyardgrass (Echinochloa crus-galli), read-out: Visual Growth Reduction (%) 14 Days After Application, ECHCG
[14] = ORYSA: rice (Oryza sativa), read-out: Visual Growth Reduction (%) 14 Days After Application, ORYSA
[15] = SETFA: giant foxtail (Setaria faberi), read-out: Visual Growth Reduction (%) 14 Days After Application, SETFA
[16] = SORVU: grain sorghum (Sorghum vulgare), read-out: Visual Growth Reduction (%) 14 Days After Application, SORVU
[17] = ZEAMX: maize, corn (Zea mays), read-out: Visual Growth Reduction (%) 14 Days After Application, ZEAMX

COC(=O)c1nc(-c2ccc(I)cc2)c(C)c(N)c1Cl [Compound 136, methyl 4-amino-3-chloro-6-(4-iodophenyl)-5-methylpicolinate]
pest or weed control at 70 g/ha [1, 3]: 95 to 100%
pest or weed control at 140 g/ha [1, 3]: 95 to 100%
pest or weed control at 70 g/ha [1, 4]: 85 to 94%
pest or weed control at 140 g/ha [1, 4]: 85 to 94%
pest or weed control at 70 g/ha [1, 5]: 85 to 94%
pest or weed control at 140 g/ha [1, 5]: 85 to 94%
pest or weed control at 70 g/ha [1, 6]: 95 to 100%
pest or weed control at 140 g/ha [1, 6]: 95 to 100%
pest or weed control at 70 g/ha [1, 7]: 0 to 29%
pest or weed control at 140 g/ha [1, 7]: 0 to 29%
pest or weed control at 70 g/ha [1, 8]: 95 to 100%
pest or weed control at 140 g/ha [1, 8]: 95 to 100%
pest or weed control at 70 g/ha [1, 9]: 0 to 29%
pest or weed control at 140 g/ha [1, 9]: 0 to 29%
pest or weed control at 70 g/ha [2, 10]: 45 to 59%
pest or weed control at 140 g/ha [2, 10]: 45 to 59%
pest or weed control at 70 g/ha [2, 11]: 95 to 100%
pest or weed control at 140 g/ha [2, 11]: 95 to 100%
pest or weed control at 70 g/ha [2, 12]: 60 to 74%
pest or weed control at 140 g/ha [2, 12]: 60 to 74%
pest or weed control at 70 g/ha [2, 13]: 0 to 29%
pest or weed control at 140 g/ha [2, 13]: 0 to 29%
pest or weed control at 70 g/ha [2, 14]: 0 to 29%
pest or weed control at 140 g/ha [2, 14]: 0 to 29%
pest or weed control at 70 g/ha [2, 15]: 30 to 44%
pest or weed control at 140 g/ha [2, 15]: 45 to 59%
pest or weed control at 70 g/ha [2, 16]: 60 to 74%
pest or weed control at 140 g/ha [2, 16]: 60 to 74%
pest or weed control at 70 g/ha [2, 17]: 60 to 74%
pest or weed control at 140 g/ha [2, 17]: 75 to 84%
